Our source for the IC50 values is patent publication US20230130766A1 (SALK INSTITUTE FOR BIOLOGICAL STUDIES, priority 2020, published 2023).

Molecules are shown by their SMILES.

For this experiment, the target named is T1, ULK1 (Homo sapiens, UniProt O75385).
T1 sequence (O75385 1-1050): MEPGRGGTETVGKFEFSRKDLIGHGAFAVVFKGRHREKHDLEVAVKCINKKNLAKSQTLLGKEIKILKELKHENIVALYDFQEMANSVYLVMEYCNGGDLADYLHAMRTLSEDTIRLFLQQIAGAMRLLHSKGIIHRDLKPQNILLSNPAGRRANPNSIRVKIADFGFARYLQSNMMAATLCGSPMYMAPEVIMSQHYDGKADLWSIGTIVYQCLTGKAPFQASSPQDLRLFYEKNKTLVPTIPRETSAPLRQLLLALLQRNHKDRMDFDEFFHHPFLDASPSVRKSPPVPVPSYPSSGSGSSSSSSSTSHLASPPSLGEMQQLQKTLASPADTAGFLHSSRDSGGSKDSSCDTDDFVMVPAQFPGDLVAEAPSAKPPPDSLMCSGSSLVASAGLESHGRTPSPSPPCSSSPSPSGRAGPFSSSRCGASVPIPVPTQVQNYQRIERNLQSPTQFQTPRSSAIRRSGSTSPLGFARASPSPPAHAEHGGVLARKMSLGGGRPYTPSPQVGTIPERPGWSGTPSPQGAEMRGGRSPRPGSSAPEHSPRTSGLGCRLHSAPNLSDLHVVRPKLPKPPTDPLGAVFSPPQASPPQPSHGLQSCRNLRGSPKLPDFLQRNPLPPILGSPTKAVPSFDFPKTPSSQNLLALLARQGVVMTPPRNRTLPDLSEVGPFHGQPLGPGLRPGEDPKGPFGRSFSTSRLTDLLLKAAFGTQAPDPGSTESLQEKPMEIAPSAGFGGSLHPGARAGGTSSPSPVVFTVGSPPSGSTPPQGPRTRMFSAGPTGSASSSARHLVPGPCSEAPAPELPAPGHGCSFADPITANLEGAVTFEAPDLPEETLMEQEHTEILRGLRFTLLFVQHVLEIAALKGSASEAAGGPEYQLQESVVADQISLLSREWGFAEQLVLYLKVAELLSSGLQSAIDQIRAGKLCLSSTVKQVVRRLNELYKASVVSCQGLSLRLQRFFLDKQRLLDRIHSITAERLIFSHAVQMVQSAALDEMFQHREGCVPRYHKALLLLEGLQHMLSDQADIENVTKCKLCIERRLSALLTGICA
As to the kind of experiment: ULK1 inhibition assay. The settings on record: * = tested as a mixture of regioisomers. It counts as biochemical.
Usually IC50 stands for the concentration that inhibits the measured activity by half. With `O=C1CCc2cc(Nc3ncc(C(F)(F)F)c(OCCN4CCOC4=O)n3)ccc2N1` [Compound 357], the 50% inhibitory concentration (IC50) was in the range of 200 to 2000 nM.

Regarding `N=c1ccon1-c1ncc(C(F)(F)F)c(NC2CC2)n1` [Compound 214b], the IC50 is greater than 2000 nM.

`CN(c1nc(Nc2ccc3c(c2)CCC(=O)N3)ncc1C(F)(F)F)C1CC1` [Compound 202]: the IC50 is less than 200 nM.

Regarding `CNC(=O)c1ccccc1Oc1nc(Nc2ccc(Cl)c(Cl)c2)ncc1C(F)(F)F` [Compound 108a], the IC50 was greater than 2000 nM.

As for `O=C1CCc2cc(Nc3ncc(C(F)(F)F)c(Nc4nccs4)n3)ccc2N1` [Compound 58], the IC50 was greater than 2000 nM.

In the case of `COc1ccc(C)c(Nc2ncc(Br)c(Nc3ccc(OC)nc3)n2)c1` [Compound 35], the IC50 is greater than 2000 nM.

Turning to `CC(=O)Nc1ccccc1Oc1nc(Nc2ccc3c(c2)OCO3)ncc1Br` [Compound 321a], the IC50 was greater than 2000 nM.

With `OCc1ccccc1Nc1nc(Nc2cc(F)c(F)c(F)c2)ncc1Br` [Compound 353], the IC50 was greater than 2000 nM.

Regarding `O=C1CCc2cc(Nc3ncc(C(F)(F)F)c(SCc4ccccc4)n3)ccc2N1` [Compound 62], the IC50 is less than 200 nM.

For `FC(F)(F)c1cnc(Nc2ccc3ncoc3c2)nc1NC1CC1` [Compound 208a], the IC50 is less than 200 nM.

Take `O=C1CCc2cc(Nc3ncc(C(F)(F)F)c(NC4CCCC4)n3)ccc2N1` [Compound 160a]: the IC50 was less than 200 nM.

As to `FC(F)(F)c1cnc(Nc2ccc3c(c2)OCO3)nc1NCC1CC1` [Compound 167b], the IC50 is less than 200 nM.

Take `O=c1[nH]c2ccc(Nc3nccc(NC4CC4)n3)cc2[nH]1` [Compound 232]: the IC50 is greater than 2000 nM.

Turning to `O=C1CCc2cc(Nc3ncc(C(F)(F)F)c(NCCCNC(=O)C4CC4)n3)ccc2N1` [Compound 333], the IC50 is less than 200 nM.

Consider `CNC(=O)c1ccccc1Oc1nc(Nc2ccccc2)ncc1C(F)(F)F` [Compound 99], for which the IC50 is greater than 2000 nM.

On to `Nc1ccc(Nc2ncc(C(F)(F)F)c(NC3CC3)n2)cc1` [Compound 304a], for which the 50% inhibitory concentration (IC50) was less than 200 nM.

On to `CNC(=O)c1ccccc1Nc1nc(Nc2ccc3c(c2)OCO3)ncc1Cl` [Compound 49], for which the IC50 is less than 200 nM.

As to `FC(F)(F)c1cnc(Nc2cnc3[nH]ccc3c2)nc1NC1CC1` [Compound 152a], the IC50 was less than 200 nM.

As for `CNC(=O)c1cccc(Nc2nc(Nc3ccc4c(c3)CCC(=O)N4)ncc2C(F)(F)F)c1` [Compound 128], the IC50 is less than 200 nM.

Consider `FC(F)(F)c1cnc(Nc2cccc3ncccc23)nc1NC1CC1` [Compound 278], for which the half-inhibitory concentration (IC50) is greater than 2000 nM.

For the compound `O=C1CCc2cc(Nc3ncc(C(F)(F)F)c(NCc4ccccc4)n3)ccc2N1` [Compound 43], the IC50 is less than 200 nM.

Regarding `O=C1CCc2cc(Nc3ncc(C(F)(F)F)c(-c4ccccc4)n3)ccc2N1` [Compound 72], the IC50 is greater than 2000 nM.

On to `FC(F)(F)c1cnc(Nc2cnc3[nH]ccc3c2)nc1Nc1ccc2c(c1)OCO2` [Compound 177], for which the IC50 is less than 200 nM.

Take `O=C1CCc2cc(Nc3ncc(C(F)(F)F)c(OCc4ccccc4)n3)ccc2N1` [Compound 81]: the IC50 was less than 200 nM.

For the compound `CNC(=O)c1ccccc1Oc1nc(Nc2ccc3c(c2)CCC(=O)N3)ncc1Br` [Compound 325], the IC50 was greater than 2000 nM.

In the case of `FC(F)(F)c1cnc(Nc2cnc3[nH]ccc3c2)nc1NC1CCC1` [Compound 161a], the IC50 was less than 200 nM.

Take `CS(=O)(=O)c1cccc(CNc2nc(Nc3ccc4[nH]ccc4c3)ncc2Br)c1` [Compound 153]: the IC50 is greater than 2000 nM.

Turning to `N#CCc1cccc(Nc2nc(Nc3ccc4c(c3)CCC(=O)N4)ncc2C(F)(F)F)c1` [Compound 61], the 50% inhibitory concentration (IC50) is less than 200 nM.

Take `COc1cc(Nc2ncc(Br)c(-n3nnc4ccccc43)n2)cc(OC)c1OC` [Compound 331a]: the IC50 was greater than 2000 nM.

Take `COc1cc(Nc2nc(Oc3cccc4c3CCCC4)ncc2Br)cc(OC)c1OC` [Compound 330b]: the IC50 was greater than 2000 nM.

As for `FC(F)(F)c1cnc(Nc2ccc(-n3cccc3)cc2)nc1Nc1ccc2c(c1)OCO2` [139*], the half-maximal inhibitory concentration (IC50) was less than 200 nM.

For `COc1cc(Nc2ncc(Br)c(N(C)C(=O)c3ccccc3O)n2)cc(OC)c1OC` [Compound 171b], the IC50 is less than 200 nM.

As for `COc1ccc(C)c(Nc2ncc(Cl)c(NCc3cccc(S(C)(=O)=O)c3)n2)c1` [Compound 41], the half-inhibitory concentration (IC50) is greater than 2000 nM.

For the compound `COc1cc(Nc2ncc(Br)c(NC3CC3)n2)cc(OC)c1OC` [Compound 186], the IC50 was less than 200 nM.

With `Brc1cnc(Nc2ccc3[nH]ccc3c2)nc1Nc1ccccn1` [Compound 154], the IC50 was less than 200 nM.

As to `COc1cc(Nc2nc(Oc3cccc4c3N(C(C)=O)CCC4)ncc2Br)cc(OC)c1OC` [Compound 335b], the IC50 is less than 200 nM.

Turning to `O=c1[nH]c2ccc(Nc3ncc(Br)c(Nc4ccc5[nH]c(=O)[nH]c5c4)n3)cc2[nH]1` [Compound 233], the IC50 is less than 200 nM.

Regarding `COc1cc(Nc2ncc(Br)c(Nc3ccccc3CO)n2)cc(OC)c1OC` [Compound 303], the IC50 is less than 200 nM.

In the case of `COc1cc(Nc2ncc(Br)c(Oc3ccccc3C(F)(F)F)n2)cc(OC)c1OC` [Compound 299], the IC50 is less than 200 nM.

Turning to `CN(c1ccccc1)c1nc(Nc2ccc3c(c2)CCC(=O)N3)ncc1C(F)(F)F` [Compound 184a], the IC50 was 200 to 2000 nM.

Regarding `CCCCOc1nc(Nc2cc(OC)c(OC)c(OC)c2)ncc1Br` [Compound 173], the IC50 is less than 200 nM.

On to `COc1cc(Nc2ncc(Br)c(Oc3ccccc3C(=O)NC3CC3)n2)cc(OC)c1OC` [Compound 270], for which the IC50 lay within 200 to 2000 nM.

With `O=C1Cc2cc(Nc3ncc(C(F)(F)F)c(NC4CC4)n3)ccc2N1` [Compound 240], the IC50 is less than 200 nM.

Consider `O=C1CCc2cc(Nc3ncc(C(F)(F)F)c(NC4CC4)n3)ccc2N1` [Compound 131a], for which the IC50 was less than 200 nM.

As to `NCCCNc1nc(Nc2ccc3c(c2)CCC(=O)N3)ncc1C(F)(F)F` [Compound 313], the IC50 is less than 200 nM.

With `O=C1CCc2cc(Nc3ncc(C(F)(F)F)c(Oc4ccccc4)n3)ccc2N1` [Compound 300a], the IC50 is greater than 2000 nM.

Regarding `CC(C)(C)OC(=O)NCCCNc1nc(Nc2ccc3c(c2)CCC(=O)N3)ncc1C(F)(F)F` [Compound 310], the IC50 is less than 200 nM.

Consider `O=C1CCc2cc(Nc3ncc(C(F)(F)F)c(OCCNC(=O)OCc4ccccc4)n3)ccc2N1` [Compound 261], for which the half-inhibitory concentration (IC50) was greater than 2000 nM.

For the compound `FC(F)(F)c1cnc(Nc2ccc3c(c2)OCO3)nc1NC1CC1` [Compound 213], the IC50 is less than 200 nM.

For `COc1cc(Nc2ncc(Br)c(Oc3ccccc3NC(=O)C(F)(F)F)n2)cc(OC)c1OC` [Compound 323], the IC50 is less than 200 nM.

Regarding `COc1cc(Nc2ncc(Br)c(Oc3cccc(O)c3[N+](=O)[O-])n2)cc(OC)c1OC` [Compound 354], the IC50 was greater than 2000 nM.

`COc1cc(Nc2ncc(Br)c(Oc3ccccc3N)n2)cc(OC)c1OC` [Compound 254b]: the IC50 is less than 200 nM.

For `COc1ccc(C)c(Nc2ncc(Cl)c(Nc3cccc(CC#N)c3)n2)c1` [Compound 54], the IC50 is greater than 2000 nM.

Consider `CNC(=O)c1ccc(OC)cc1Oc1ncc(Br)c(Nc2cc(OC)c(OC)c(OC)c2)n1` [Compound 318b], for which the 50% inhibitory concentration (IC50) is greater than 2000 nM.

Take `COc1cc(N2CCOCC2)ccc1Nc1ncc(C(F)(F)F)c(Nc2ccc3c(c2)CCC(=O)N3)n1` [Compound 123b]: the 50% inhibitory concentration (IC50) is less than 200 nM.

For `Oc1nc(Nc2cnc3[nH]ccc3c2)ncc1C(F)(F)F` [Compound 326], the IC50 was greater than 2000 nM.
